The source made the active and inactive calls. The calls are words filed in the database; no cut-off is given here.
Legend:
[1] = molecular target: T1, Potassium voltage-gated channel subfamily A member 5 (Homo sapiens, UniProt P22460); assay: Inhibition of human Kv1.5 expressed in mouse L929 cells assessed as inhibition of current at 0.3 uM; format: cell-based
[2] = Permeability across apical to basolateral side in human Caco2 cells; format: ADME, cell-based; conditions: Caco-2, read-out: permeability
Plasma [3] = assay: Plasma concentration in rabbit at 10 mg/kg; format: ADME, organism-based, Oryctolagus cuniculus; set-up: dose 10 mg/kg; conditions: in vivo
[4] = Volume of distribution at steady state in Sprague-Dawley rat at 10 umol/kg, via carotid artery by LC-MS method; format: ADME, organism-based; conditions: in vivo, read-out: Vdss
[5] = Plasma protein binding in rabbit; format: ADME, cell-free, Oryctolagus cuniculus; conditions: read-out: PPB (converted)
Oryctolagus cuniculus [6] = assay: Anti-atrial fibrillation in rabbit assessed as ventricular effective refractory period prolongation at 10 mg/kg; format: functional
Oryctolagus cuniculus [7] = assay: Anti-atrial fibrillation in rabbit assessed as atrial effective refractory period prolongation at 10 mg/kg; format: functional, Cardiac atrium
[8] = Half life in Sprague-Dawley rat at 10 umol/kg, via carotid artery by LC-MS method; format: ADME, organism-based; conditions: in vivo
[9] = Clearance in Sprague-Dawley rat at 10 umol/kg, via carotid artery by LC-MS method; format: ADME, organism-based; conditions: in vivo
[10] = molecular target: T1, Potassium voltage-gated channel subfamily A member 5; assay: Inhibition of human Kv1.5 expressed in mouse L929 cells assessed as inhibition of current; format: cell-based
hERG (KCNH2) = hERG (KCNH2) (Homo sapiens, UniProt Q12809); assay: Inhibition of human ERG at 10 uM
Chain of hERG (KCNH2) (Q12809 whole entry): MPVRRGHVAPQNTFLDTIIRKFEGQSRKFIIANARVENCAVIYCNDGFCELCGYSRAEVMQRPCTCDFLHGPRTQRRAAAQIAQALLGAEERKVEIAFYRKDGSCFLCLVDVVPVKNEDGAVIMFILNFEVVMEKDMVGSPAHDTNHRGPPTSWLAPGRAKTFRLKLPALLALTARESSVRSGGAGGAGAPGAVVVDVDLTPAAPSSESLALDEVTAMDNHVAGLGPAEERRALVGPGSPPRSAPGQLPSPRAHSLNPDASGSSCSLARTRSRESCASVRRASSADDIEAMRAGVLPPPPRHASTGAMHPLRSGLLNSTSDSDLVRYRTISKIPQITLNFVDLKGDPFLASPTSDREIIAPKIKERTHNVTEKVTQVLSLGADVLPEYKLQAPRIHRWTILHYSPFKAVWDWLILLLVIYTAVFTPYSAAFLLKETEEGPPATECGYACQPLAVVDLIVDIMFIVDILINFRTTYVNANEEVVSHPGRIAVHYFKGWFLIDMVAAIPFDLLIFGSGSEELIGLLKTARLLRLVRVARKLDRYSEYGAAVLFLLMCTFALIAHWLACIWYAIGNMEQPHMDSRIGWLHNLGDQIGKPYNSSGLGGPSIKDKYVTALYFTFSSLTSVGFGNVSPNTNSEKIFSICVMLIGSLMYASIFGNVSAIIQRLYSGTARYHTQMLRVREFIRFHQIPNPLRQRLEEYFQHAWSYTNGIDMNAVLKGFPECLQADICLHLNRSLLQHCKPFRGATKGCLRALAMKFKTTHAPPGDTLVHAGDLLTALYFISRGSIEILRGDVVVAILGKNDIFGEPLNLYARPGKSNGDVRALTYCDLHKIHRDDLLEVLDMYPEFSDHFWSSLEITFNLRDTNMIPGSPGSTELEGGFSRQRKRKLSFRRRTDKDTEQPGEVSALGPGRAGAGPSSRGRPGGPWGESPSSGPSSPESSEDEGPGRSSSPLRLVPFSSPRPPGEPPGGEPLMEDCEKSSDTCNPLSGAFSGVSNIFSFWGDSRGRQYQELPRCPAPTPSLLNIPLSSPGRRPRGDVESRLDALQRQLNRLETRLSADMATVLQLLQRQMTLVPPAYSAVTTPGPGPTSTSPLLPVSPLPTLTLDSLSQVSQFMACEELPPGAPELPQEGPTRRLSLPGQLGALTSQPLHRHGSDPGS

[11] = Permeability of the compound by PAMPA; format: ADME; conditions: read-out: permeability
Oryctolagus cuniculus [12] = assay: Anti-atrial fibrillation in rabbit assessed as atrial effective refractory period prolongation at 1 mg/kg; format: functional, Cardiac atrium
Oryctolagus cuniculus [13] = assay: Anti-atrial fibrillation in rabbit assessed as decrease in blood pressure at 1 mg/kg; format: functional
Oryctolagus cuniculus [14] = assay: Anti-atrial fibrillation in rabbit assessed as atrial effective refractory period prolongation at 3 mg/kg; format: functional, Cardiac atrium
Plasma [15] = assay: Plasma concentration in rabbit at 1 mg/kg; format: ADME, organism-based, Oryctolagus cuniculus; set-up: dose 1 mg/kg; conditions: in vivo
Plasma [16] = assay: Plasma concentration in rabbit at 3 mg/kg; format: ADME, organism-based, Oryctolagus cuniculus; set-up: dose 3 mg/kg; conditions: in vivo
Oryctolagus cuniculus [17] = assay: Anti-atrial fibrillation in rabbit assessed as increase in heart rate at 1 mg/kg; format: functional
Oryctolagus cuniculus [18] = assay: Anti-atrial fibrillation in rabbit assessed as decrease in blood pressure at 3 mg/kg; format: functional
Oryctolagus cuniculus [19] = organism: Oryctolagus cuniculus; assay: Anti-atrial fibrillation in rabbit assessed as atrial effective refractory period prolongation; format: functional, organism-based; conditions: Cardiac atrium
Oryctolagus cuniculus [20] = assay: Anti-atrial fibrillation in rabbit assessed as increase in heart rate at 3 mg/kg; format: functional

T1 sequence (P22460 whole entry): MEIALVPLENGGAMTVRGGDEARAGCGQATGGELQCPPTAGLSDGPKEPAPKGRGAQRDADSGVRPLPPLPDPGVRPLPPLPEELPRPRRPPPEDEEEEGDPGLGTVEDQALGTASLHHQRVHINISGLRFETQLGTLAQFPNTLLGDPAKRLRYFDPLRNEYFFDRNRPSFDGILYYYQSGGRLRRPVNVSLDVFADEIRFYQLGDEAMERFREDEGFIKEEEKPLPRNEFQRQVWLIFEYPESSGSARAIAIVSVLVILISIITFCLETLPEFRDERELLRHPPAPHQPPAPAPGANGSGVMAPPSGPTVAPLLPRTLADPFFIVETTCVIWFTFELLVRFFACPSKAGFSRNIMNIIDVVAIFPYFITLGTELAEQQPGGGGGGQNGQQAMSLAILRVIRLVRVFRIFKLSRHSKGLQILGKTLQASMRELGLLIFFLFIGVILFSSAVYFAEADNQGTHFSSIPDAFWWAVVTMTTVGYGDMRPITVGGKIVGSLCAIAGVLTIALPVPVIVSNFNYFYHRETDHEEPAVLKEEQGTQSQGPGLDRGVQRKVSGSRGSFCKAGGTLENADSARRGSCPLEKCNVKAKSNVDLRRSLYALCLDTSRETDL

Structure (SMILES)	Vd [4]	half-life [8]	clearance [9]	IC50 [10]	inhibition at 10 µM (hERG (KCNH2))	other results
COc1cccc2[nH]nc(NCC(C)(C)c3ccccc3)c12						inhibition [1]: 37%; Papp A→B [2]: 9.4 ×10⁻⁶ cm/s
COc1ccc2c(NCC(C)(C)c3ccccc3)noc2c1						inhibition [1]: 21%; Papp A→B [2]: 3.6 ×10⁻⁶ cm/s
CCNC(=O)O[C@H]1CC[C@](CNc2n[nH]c3cccc(OC)c23)(c2ccccc2)CC1	1.4 L/kg	1.3 h	21 mL/min/kg	138 nM	52%	Activity (Oryctolagus cuniculus [12]): 15%; fraction unbound [5]: 0.003; Activity (Oryctolagus cuniculus [6]): inactive; inhibition in vivo at 1 mg/kg (Oryctolagus cuniculus [13]): 7%; Activity (Oryctolagus cuniculus [14]): 22%; concentration (Plasma [15]): 700 nM; Papp [11]: 67 ×10⁻⁶ cm/s; concentration (Plasma [16]): 2400 nM; Activity (Oryctolagus cuniculus [17]): 5%; inhibition in vivo at 3 mg/kg (Oryctolagus cuniculus [18]): 17%; Activity (Oryctolagus cuniculus [19]): Dose-dependent effect; Activity (Oryctolagus cuniculus [20]): 16%
COc1cccc2ccnc(NCC(C)(C)c3ccccc3)c12	14 L/kg	1.8 h	124 mL/min/kg	22 nM	99%	
COc1ccc2onc(NCC(C)(C)c3ccccc3)c2c1						inhibition [1]: 37%
CC(C)(CNc1noc2cccc(Cl)c12)c1ccccc1						inhibition [1]: 33%
COc1cccc2c1c(NCC(C)(C)c1ccccc1)nn2C	1.7 L/kg	2.1 h	12 mL/min/kg	198 nM	69%	Activity (Oryctolagus cuniculus [12]): 6%; fraction unbound [5]: < 0.001; concentration (Plasma [15]): 300 nM; Papp A→B [2]: 2.3 ×10⁻⁶ cm/s
COc1cccc2ncnc(NCC(C)(C)c3ccccc3)c12				118 nM	90%	
COc1cccc2c1c(NCC(C)(C)c1ccccc1)nn2C(C)C						inhibition [1]: 42%
COc1cccc2onc(N(C)CC(C)(C)c3ccccc3)c12				187 nM		
COc1cccc2nc(Cl)nc(NCC(C)(C)c3ccccc3)c12				73 nM	90%	
COc1cccc2c1C(NCC(C)(C)c1ccccc1)=NC2=O	1.1 L/kg	0.8 h	35 mL/min/kg	84 nM	46%	Papp [11]: 79 ×10⁻⁶ cm/s; Papp A→B [2]: 27 ×10⁻⁶ cm/s
COc1cccc2nc(O)nc(NCC(C)(C)c3ccccc3)c12				23 nM	50%	Papp [11]: 81.6 ×10⁻⁶ cm/s
CCNC(=O)O[C@H]1CC[C@](CNc2nn(C)c3cccc(OC)c23)(c2ccccc2)CC1	0.6 L/kg	1.4 h	8 mL/min/kg	88 nM	54%	

Now from value to compound, other results behind:

Vd [4]	half-life [8]	clearance [9]	IC50 [10]	Structure (SMILES)	inhibition at 10 µM (hERG (KCNH2))	other results
3.7 L/kg	2.4 h	22 mL/min/kg	43 nM	COc1cccc2onc(NCC(C)(C)c3ccccc3)c12		concentration (Plasma [3]): 8200 nM; fraction unbound [5]: < 0.001; Activity (Oryctolagus cuniculus [6]): <5%; Activity (Oryctolagus cuniculus [7]): <5%
0.7 L/kg	0.8 h	10 mL/min/kg	197 nM	COc1cccc2oc(=O)nc(NCC(C)(C)c3ccccc3)c12	66%	Papp [11]: 69.5 ×10⁻⁶ cm/s
			262 nM	CC(C)(CNc1noc2cccc(O)c12)c1ccccc1		
3.9 L/kg	1.8 h	28 mL/min/kg	25 nM	COc1cccc2snc(NCC(C)(C)c3ccccc3)c12	68%	
			784 nM	CC(C)(CNc1noc2ccccc12)c1ccccc1		Papp A→B [2]: 11.6 ×10⁻⁶ cm/s
			219 nM	CCc1cccc2onc(NCC(C)(C)c3ccccc3)c12		

Source: ChEMBL document CHEMBL3297706, “Design, synthesis and evaluation of phenethylaminoheterocycles as K(v)1.5 inhibitors” (Bioorg Med Chem Lett, 2014)
